Earlier results as cited in paper PMC3600422 (Journal of molecular biology, 2012).

Tests used:
[1] = test system: small cell lung carcinoma; conditions: mouse models
cancer cells = conditions: Mcl-1 or Bfl-1 overexpressed

CN(C)CC[C@H](CSc1ccccc1)Nc1ccc(S(=O)(=O)NC(=O)c2ccc(N3CCN(Cc4ccccc4-c4ccc(Cl)cc4)CC3)cc2)cc1[N+](=O)[O-] [ABT-737]
Binding to Mcl-1 (Mcl-1): do not bind to Mcl-1 | Binding to Bfl-1 (Bfl-1): do not bind to Mcl-1 or Bfl-1 | Tumor regression [1]: can regress or eliminate small cell lung carcinoma | Inducing death in cancer cells (cancer cells): ineffective in inducing death in cancer cells when these anti-apoptotic proteins are overexpressed
